Source: article PMC11026318, “Radiolabeled 15-mer peptide internalization is mediated by megalin (LRP2 receptor) in a CRISPR/Cas9-based LRP2 knockout human kidney cell model” (EJNMMI Radiopharmacy and Chemistry, 2024)

How the values were obtained:
[1] = test system: HK2 cells (parent, partial KO, LRP2 KO); test: Viability assay with gentamicin at cytotoxic concentration (CellTiter 96 AQueous One); assay type: cell-based, human; settings: gentamicin 6 mg/mL, 48 h
Method: The cells were seeded in a 96-well plate (10^4 cells per well) 24 h prior to the experiment. The cells treated with gentamicin at cytotoxic concentration (6 mg/mL) were incubated in parallel with the controls in standard culture medium (representing 100% cell viability). The cells cultivated with 10% DMSO in culture medium represent 0% cell viability, which was measured after 48 h using the CellTiter 96® AQueous One Solution Cell Proliferation Assay (Promega) according to the manufacturer’s protocol. Absorbance was detected using a spectrophotometric plate reader (TECAN Infinite M200).

[2] = test system: vascular endothelial growth factor (VEGF) receptor; settings: in both in vitro and in vivo studies; ref Basile et al. [2011]; cited from earlier work
[3] = molecular target: T1, megalin (LRP2 receptor) in HK2 cells (Homo sapiens, UniProt P98164); test: FITC-albumin accumulation studies in parent HK2 vs LRP2 knockout cells; assay type: cell-based; settings: 24 µg/mL, 2 h; fluorescence of cell lysates related to total protein
T1 construct: a human kidney cell line with high endogenous megalin expression; host or cells: HK2 human kidney epithelial cells (parent), compared with CRISPR/Cas9 LRP2 KO derivatives
T1 sequence (P98164 26-4655): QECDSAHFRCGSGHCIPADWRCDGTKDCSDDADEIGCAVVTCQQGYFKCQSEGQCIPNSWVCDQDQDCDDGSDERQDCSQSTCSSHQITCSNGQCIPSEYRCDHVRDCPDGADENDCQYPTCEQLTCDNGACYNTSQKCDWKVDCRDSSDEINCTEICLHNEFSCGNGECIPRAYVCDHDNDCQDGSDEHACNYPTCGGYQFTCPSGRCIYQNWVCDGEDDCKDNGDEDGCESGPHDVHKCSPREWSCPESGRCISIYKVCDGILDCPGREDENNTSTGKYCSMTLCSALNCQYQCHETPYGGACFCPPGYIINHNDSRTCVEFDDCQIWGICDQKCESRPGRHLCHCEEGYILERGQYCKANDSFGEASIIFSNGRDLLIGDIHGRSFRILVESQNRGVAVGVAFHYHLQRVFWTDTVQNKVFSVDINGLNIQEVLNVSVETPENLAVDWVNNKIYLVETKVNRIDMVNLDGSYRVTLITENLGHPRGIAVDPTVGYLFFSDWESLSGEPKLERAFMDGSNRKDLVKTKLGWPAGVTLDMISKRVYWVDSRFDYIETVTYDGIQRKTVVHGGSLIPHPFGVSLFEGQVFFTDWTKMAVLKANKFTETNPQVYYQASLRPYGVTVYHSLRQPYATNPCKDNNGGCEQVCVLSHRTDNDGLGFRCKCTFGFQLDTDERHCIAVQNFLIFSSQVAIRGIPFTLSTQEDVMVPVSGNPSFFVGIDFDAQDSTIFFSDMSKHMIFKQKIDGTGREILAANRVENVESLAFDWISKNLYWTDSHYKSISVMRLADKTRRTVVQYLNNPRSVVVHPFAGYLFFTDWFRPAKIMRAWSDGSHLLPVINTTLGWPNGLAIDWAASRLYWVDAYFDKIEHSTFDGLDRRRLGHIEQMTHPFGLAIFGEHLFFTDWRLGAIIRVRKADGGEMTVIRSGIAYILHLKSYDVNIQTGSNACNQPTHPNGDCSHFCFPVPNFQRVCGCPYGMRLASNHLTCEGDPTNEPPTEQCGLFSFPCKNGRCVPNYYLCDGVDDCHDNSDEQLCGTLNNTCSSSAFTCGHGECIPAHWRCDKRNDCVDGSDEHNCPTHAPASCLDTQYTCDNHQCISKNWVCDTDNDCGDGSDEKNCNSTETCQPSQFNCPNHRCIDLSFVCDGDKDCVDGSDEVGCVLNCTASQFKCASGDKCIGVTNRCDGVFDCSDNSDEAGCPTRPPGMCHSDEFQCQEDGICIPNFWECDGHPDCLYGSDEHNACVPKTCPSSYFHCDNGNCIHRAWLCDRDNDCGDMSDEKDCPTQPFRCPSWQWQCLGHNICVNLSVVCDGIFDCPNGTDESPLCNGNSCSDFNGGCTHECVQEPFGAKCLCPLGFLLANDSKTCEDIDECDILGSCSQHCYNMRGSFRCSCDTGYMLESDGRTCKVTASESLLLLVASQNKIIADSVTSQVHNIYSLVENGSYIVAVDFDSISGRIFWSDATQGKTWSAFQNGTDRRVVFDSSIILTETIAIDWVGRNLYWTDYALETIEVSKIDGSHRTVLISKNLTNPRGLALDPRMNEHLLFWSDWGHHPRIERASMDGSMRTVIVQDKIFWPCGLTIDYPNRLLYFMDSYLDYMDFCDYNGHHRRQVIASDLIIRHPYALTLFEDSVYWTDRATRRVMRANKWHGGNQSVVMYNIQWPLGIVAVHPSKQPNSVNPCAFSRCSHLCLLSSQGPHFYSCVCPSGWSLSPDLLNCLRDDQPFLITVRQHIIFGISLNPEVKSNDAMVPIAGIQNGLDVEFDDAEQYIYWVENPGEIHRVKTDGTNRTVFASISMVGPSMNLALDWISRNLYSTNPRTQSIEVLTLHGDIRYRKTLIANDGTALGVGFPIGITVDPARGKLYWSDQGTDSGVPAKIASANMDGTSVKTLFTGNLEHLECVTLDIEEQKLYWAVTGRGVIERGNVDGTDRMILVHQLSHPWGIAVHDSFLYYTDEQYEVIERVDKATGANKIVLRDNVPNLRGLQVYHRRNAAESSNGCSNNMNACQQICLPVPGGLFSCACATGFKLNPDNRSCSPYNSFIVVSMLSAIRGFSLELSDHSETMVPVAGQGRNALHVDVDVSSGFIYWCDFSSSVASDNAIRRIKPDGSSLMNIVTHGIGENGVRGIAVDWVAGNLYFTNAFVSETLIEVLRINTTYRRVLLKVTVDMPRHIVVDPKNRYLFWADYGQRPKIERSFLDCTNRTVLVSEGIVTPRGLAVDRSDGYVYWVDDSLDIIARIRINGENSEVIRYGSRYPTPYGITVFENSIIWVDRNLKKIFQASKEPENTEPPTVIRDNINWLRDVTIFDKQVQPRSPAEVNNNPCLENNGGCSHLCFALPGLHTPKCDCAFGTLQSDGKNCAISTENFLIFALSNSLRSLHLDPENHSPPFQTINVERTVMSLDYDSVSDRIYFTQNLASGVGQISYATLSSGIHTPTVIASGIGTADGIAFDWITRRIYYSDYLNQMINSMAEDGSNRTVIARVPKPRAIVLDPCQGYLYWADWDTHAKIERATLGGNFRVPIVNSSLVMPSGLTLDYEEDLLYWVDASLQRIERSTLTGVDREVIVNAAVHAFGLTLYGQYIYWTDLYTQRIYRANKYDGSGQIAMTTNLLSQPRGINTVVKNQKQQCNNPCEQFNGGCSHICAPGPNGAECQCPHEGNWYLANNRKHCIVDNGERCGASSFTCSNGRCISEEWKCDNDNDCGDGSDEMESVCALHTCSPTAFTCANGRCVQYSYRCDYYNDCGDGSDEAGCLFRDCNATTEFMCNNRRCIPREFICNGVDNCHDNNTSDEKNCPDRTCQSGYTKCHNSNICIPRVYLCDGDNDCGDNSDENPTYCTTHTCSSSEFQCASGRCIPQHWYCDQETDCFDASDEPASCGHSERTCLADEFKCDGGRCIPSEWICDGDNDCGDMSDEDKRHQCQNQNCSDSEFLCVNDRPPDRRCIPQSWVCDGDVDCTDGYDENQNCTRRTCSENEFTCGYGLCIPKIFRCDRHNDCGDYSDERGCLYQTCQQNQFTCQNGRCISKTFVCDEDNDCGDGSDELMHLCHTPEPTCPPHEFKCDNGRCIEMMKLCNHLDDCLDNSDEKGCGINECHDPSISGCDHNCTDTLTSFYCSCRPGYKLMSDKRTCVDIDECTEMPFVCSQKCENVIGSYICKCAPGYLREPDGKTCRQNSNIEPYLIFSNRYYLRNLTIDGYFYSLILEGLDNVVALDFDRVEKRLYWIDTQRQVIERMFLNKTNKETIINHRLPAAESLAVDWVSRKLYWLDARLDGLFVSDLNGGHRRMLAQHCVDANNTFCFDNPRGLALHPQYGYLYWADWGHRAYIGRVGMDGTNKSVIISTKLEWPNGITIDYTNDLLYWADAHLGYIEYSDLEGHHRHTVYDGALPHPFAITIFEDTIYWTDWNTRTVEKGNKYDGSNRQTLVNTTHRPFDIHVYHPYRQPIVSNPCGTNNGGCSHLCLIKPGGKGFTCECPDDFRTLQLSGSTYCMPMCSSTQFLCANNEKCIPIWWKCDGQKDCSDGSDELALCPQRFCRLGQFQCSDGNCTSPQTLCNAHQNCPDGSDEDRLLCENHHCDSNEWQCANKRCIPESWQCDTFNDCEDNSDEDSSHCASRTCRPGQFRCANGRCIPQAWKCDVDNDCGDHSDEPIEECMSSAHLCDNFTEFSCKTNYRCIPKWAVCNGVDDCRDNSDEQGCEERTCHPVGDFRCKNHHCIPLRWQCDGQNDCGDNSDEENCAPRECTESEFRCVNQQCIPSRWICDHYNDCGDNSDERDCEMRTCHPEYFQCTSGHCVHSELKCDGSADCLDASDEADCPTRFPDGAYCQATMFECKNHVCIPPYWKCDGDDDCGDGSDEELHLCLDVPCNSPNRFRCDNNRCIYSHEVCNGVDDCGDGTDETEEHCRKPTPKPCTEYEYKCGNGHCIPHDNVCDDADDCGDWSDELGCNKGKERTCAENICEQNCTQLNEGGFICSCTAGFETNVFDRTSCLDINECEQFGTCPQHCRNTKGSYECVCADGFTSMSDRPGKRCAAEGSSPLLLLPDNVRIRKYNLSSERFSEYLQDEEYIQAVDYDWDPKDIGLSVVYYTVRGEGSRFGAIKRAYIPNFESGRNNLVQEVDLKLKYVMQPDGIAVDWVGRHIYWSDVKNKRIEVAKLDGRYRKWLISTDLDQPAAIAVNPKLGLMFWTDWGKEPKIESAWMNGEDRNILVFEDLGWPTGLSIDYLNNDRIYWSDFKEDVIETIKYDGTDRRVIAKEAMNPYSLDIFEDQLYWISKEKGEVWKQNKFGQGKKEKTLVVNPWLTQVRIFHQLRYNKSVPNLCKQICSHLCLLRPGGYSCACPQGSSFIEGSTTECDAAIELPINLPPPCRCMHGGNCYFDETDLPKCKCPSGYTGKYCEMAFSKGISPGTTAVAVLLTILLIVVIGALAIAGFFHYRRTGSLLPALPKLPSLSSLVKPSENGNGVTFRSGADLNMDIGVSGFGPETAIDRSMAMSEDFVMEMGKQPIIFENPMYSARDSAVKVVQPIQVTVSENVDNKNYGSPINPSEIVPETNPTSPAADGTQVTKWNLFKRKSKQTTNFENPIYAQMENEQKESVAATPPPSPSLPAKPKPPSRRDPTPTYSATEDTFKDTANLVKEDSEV
Method: The CRISPR/cas9 gene editing technique was implemented to generate LRP2 KO HK2 cells (Fig. 1) employing designed sgRNA sequences (Table 1). HK2 cells were seeded on 24-well plate (10^5 cells/well). Cells were transfected by sgRNA (720 ng per reaction) and TrueCut™ Cas9 Protein v2 (3 840 ng per reaction; Invitrogen) using Lipofectamine™ CRISPRMAX™ Cas9 Transfection Reagent (Invitrogen) according to the manufacturer’s instructions 24 h after seeding. The knockout reactions were repeated twice for each sgRNA. Each transfection was performed after 48 h of recovery. The final group of cells transfected sequentially six times was designated as LRP2 KO. A group of cells transfected only once with NPMY sgRNA but twice with TMD and PPPSPS sgRNAs, was designated as partial KO (Figs. 2A–E, 5A and B).
The accumulation studies of fluorescein isothiocyanate-labelled albumin (FITC-albumin, Merck) were performed in 24-well plates (10^5 cells per well). The cells were incubated with 24 µg/mL FITC-albumin, and Passive Lysis Buffer (Promega) was added to lyse the cells after 2 h treatment. The accumulated FITC-albumin was quantified by measuring the fluorescence intensity of cell lysates (Tecan Spark® multimode microplate reader). Fluorescence intensity was plotted against total protein concentration determined by the commercially available Pierce™ BCA Protein Assay Kit (ThermoFisher Scientific).

Molecule: CNC(C)C1CCC(N)C(OC2C(N)CC(N)C(OC3OCC(C)(O)C(NC)C3O)C2O)O1 (stereo not drawn) [gentamicin]
- Viability of partial KO or LRP2 KO cells after treatment, compared to HK2 parent cells [1]: higher viability

Molecule: Ac-KLTWMELYQLAYKGI-NH2 [15-mer, 15 amino acid anti-VEGFR peptide, custom synthesized according to a previously published structure (Basile et al. 2011)]
- Antiangiogenic effects [2]: potent antiangiogenic effects

Molecule: fluorescein isothiocyanate-labelled albumin [FITC-albumin]
- FITC-albumin accumulation in KO cells vs parent HK2 cells [3]: Reduced FITC-albumin accumulation
